Legend:
NF-κB pathway = test: NF-κB activity reporter assay in THP1-Dual cells; type: cell-based, human; conditions: for NF-κB pathway activation combined with PRR agonists: LPS or other NF-κB pathway inducers; for NF-κB pathway activation when treated with LPS: 16 hours, vs vehicle
Protocol: NF-κB and IRF induction assays were performed using mouse RAW-Dual™ (InvivoGen) and human THP1-Dua™ (InvivoGen) reporter cell lines. The cells were resuspended in freshly prepared test media at a concentration of 1.0×10^6 cells/mL for RAW-Dual™ and 5.0×10^5 cells/mL for THP1-Dual™. 180 μL of cells were seeded per well in a standard 96-well plate and optimized the concentration of several PRR agonists that trigger NF-κB and IRF. To test the metabolite effect on these pathways, 10 μL of the optimized receptor agonist, 10 μL of the 2 mM metabolite solution or vehicle was added to each well, making a final volume of 200 μL. To neutralize IL-1 receptor signalling, anti-IL-1a (clone 7D4, InvivoGen) and anti-IL-1β (clone 4H5, InvivoGen) antibodies were added and IgG1 isotype (clone T8E5, InvivoGen) was used as a control, as per manufacturer's recommendation. NF-κB activity was determined by measuring secreted embryonic alkaline phosphatase (SEAP) levels using QUANTI-Blue™ solution (InvivoGen). After aliquoting 20 μL of cell culture supernatant into 180 μL of QUANTI-Blue™, the conversion of color to blue was monitored and SEAP levels were determined using a SpectraMax i3 from Molecular Devices at 650 nm. To assess IRF induction, secreted lucia luciferase levels were measured in the culture medium using QUANTI-Luc™ solution (InvivoGen). 20 μL of cell culture supernatant was aliquoted into 50 μL of QUANTI-Luc™ solution and the luminescence reading was immediately recorded using the SpectraMax i3.

IRF pathway = type: cell-based, human
GSDMD = target: T1, GSDMD (Homo sapiens, UniProt P57764); test: Western blot of GSDMD cleavage in THP-1 cells; type: cell-based
T1 construct: host or cells: THP1-Dual cells (human monocytic reporter line)
T1 sequence (P57764 1-484): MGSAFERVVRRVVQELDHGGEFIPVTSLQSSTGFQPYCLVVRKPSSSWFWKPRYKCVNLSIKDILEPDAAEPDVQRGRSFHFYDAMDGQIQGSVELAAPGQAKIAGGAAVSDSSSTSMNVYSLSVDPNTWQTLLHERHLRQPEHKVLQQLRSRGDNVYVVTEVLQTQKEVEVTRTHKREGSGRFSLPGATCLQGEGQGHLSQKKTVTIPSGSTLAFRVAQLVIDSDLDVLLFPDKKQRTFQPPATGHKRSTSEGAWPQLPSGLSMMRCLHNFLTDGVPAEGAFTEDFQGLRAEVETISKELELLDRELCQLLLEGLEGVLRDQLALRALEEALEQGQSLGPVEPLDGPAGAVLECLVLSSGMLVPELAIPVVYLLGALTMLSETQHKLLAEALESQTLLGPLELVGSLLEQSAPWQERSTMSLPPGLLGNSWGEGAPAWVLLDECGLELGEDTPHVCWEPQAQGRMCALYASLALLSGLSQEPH
Protocol: Cells were collected and lysates prepared using total lysis buffer (50 mM Tris-HCl, pH 8.0; 150 mM NaCl; 1% Triton X-100; 1% SDS). The supernatant was obtained by centrifuging at 10,000 RPM for 10 minutes at 4° C. using a benchtop PCR centrifuge. Protein quantification was performed using the Bio-Rad DC Protein Assay Kit (Bio-Rad, NC, USA). Proteins were separated using 12% SDS-PAGE gels and transferred to a PVDF membrane using the Bio-Rad Trans-turbo semi-dry transfer apparatus at 25 V/1 A for 1 hour. The membrane was blocked with Tris-buffered-saline-Tween-20™ (TBST) containing 5% skim milk for 30 minutes at room temperature. The membrane was then probed overnight at 4° C. with rabbit monoclonal recombinant anti-GSDMD antibody (ab210070, Abcam), anti-cleaved N-terminal GSDMD antibody (ab215203, Abcam) and mouse anti-actin monoclonal antibody (MAB1501, MilliporeSigma) for human FL-GSDMD, CL-GSDMD and actin. The next day, the membranes were washed with TBST three times and probed with goat anti-rabbit (1706515, Bio-Rad) or goat anti-mouse (1706516, Bio-Rad) horseradish peroxidase-conjugated IgG for 1 hour at room temperature. The secondary antibodies were diluted in TBST containing 5% (w/v) skim milk at 1:5000 and the membranes washed with TBST before detecting the proteins of interest using the Clarity™ Western ECL Substrate (Bio-Rad) on a Chemidoc-IT Imager (UVP, Upland, CA, USA).

influenza virus = conditions: early study, Science 357, 498-502 (2017); cited from earlier work

| SMILES | NF-κB pathway activation when treated with LPS (NF-κB pathway) | also measured |
| --- | --- | --- |
| O=C(O)CCc1cccc(O)c1 [Compound I-2, 3-(3-hydroxyphenyl)propanoic acid] | potentiates | NF-κB pathway activation combined with PRR agonists (NF-κB pathway): potentiate; IRF pathway activation combined with PRR agonists (IRF pathway): potentiate; GSDMD cleavage in the presence of LPS or LPS+NG stimulation (GSDMD): facilitating gasdermin D cleavage |
| O=C(O)CCc1ccc(O)cc1 [Compound I-3, 3-(4-hydroxyphenyl)propanoic acid] | potentiates | NF-κB pathway activation combined with PRR agonists (NF-κB pathway): potentiate; IRF pathway activation combined with PRR agonists (IRF pathway): potentiate; GSDMD cleavage in the presence of LPS or LPS+NG stimulation (GSDMD): facilitating gasdermin D cleavage; influenza virus pathology (influenza virus): protects from influenza virus pathology; type 1 interferon signalling (influenza virus): primes the amplification loop of type 1 interferon signalling |
| O=C([O-])CCc1ccc(O)cc1.[Na+] [Compound I-4, sodium 3-(4-hydroxyphenyl)propionic acid] | significantly enhanced the activation |  |
| COC(=O)CCc1ccc(O)cc1 [Compound I-5, methyl 3-(4-hydroxyphenyl) propionate] | significantly enhanced the activation |  |
| CCOC(=O)CCc1ccc(O)cc1 [Compound I-6, ethyl 3-(4-hydroxyphenyl)propionate] | significantly enhanced the activation |  |
| O=C(CCc1ccc(O)cc1)ON1C(=O)CCC1=O [Compound I-7, 3-(4-hydroxyphenyl)propionic acid N-hydroxysuccinimide ester] | significantly enhanced the activation |  |
| O=C(O)CCc1ccc(F)cc1 [II-1, 3-(4-fluorophenyl)propionic acid] | significantly enhanced the activation |  |
| O=C(O)CCc1ccc(Cl)cc1 [II-2, 3-(4-chlorophenyl)propionic acid] | significantly enhanced the activation |  |
| Nc1ccc(CCC(=O)O)cc1 [II-3, 3-(4-aminophenyl)propionic acid] | significantly enhanced the activation |  |
| Cc1ccc(CCC(=O)O)cc1 [II-4, 3-(4-methylphenyl)propionic acid] | significantly enhanced the activation |  |
| O=C(O)CCCc1ccc(O)cc1 [III-1, 4-(4-hydroxyphenyl)butanoic acid] | significantly enhanced the activation |  |
| O=C(O)CCCCc1ccc(O)cc1 [III-2, 5-(4-hydroxyphenyl)pentatonic acid] | significantly enhanced the activation |  |
| O=C(O)CCC(=O)c1ccc(O)cc1 [IV] | significantly enhanced the activation |  |
| NC(=O)CC[C@H](N)C(=O)O [L-gln, L-glutamine, reference compound] | had no effect | IRF pathway activation combined with PRR agonists (IRF pathway): had no effect |

From US20260272865A1, “HYDROXYPHENYL PROPANOATE COMPOUNDS FOR TUMOUR IMMUNOTHERAPY, COMPOSITIONS AND USES THEREOF” (UTI LIMITED PARTNERSHIP, priority 2023, published 2026)
